Experimental data taken from patent publication US20220257629A1, “COMPOSITIONS AND METHODS FOR UPREGULATION OF HUMAN FETAL HEMOGLOBIN” (THE UAB RESEARCH FOUNDATION, priority 2019, published 2022).

How the values were obtained:
[1] = system: human CD34+-differentiated erythroid cells; test: Isoelectric focusing gel of the samples analyzed by HPLC; format: cell-based; conditions: idoxuridine 0.3 and 0.65 μM (FIG. 4)
[2] = system: human CD34+-differentiated erythroid cells; test: Western blot analysis of KLF1, BCL11A and LRF; format: cell-based; conditions: 0.7 uM, 7 days, compared to DMSO (FIG. 5)
Description: To analyze the expression of KLF1, BCL11A and LRF by Western blot, whole cell extracts were prepared from erythroid cells differentiated for seven days with DMSO or 0.7 uM of idoxuridine. Antibodies used included Actb (Santa Cruz, sc-47778 HRP, Dallas, Tex.), KLF1 (Santa Cruz, sc-14034), BCL11A (Abcam, ab19489, Cambridge, UK) and LRF (Abcam, ab175918).

[3] = system: human CD34+-differentiated erythroid cells; test: RNAseq gene expression; format: cell-based
[4] = system: human β-globin BAC transgenic mice; test: In vivo globin gene expression by qRT-PCR; parameters: species or system mouse; conditions: 100 mg/kg daily intraperitoneal injections for four weeks, blood, qRT-PCR (FIG. 6)
Description: To test if idoxuridine can induce mouse Ey2 and human γ-globin expression in human β-BAC transgenic mice, 100 mg/kg body weight of Idoxuridine were injected intraperitoneally (IP) into mice for 4 weeks. Blood samples were obtained at the end of Idoxuridine treatment and cDNAs were synthesized. Mouse Ey2 and human γ-globin expression were analyzed by qRT-PCR.

[5] = system: human CD34+-differentiated erythroid cells; test: FACS analysis of fetal hemoglobin expressing erythroid cells (F cells); format: cell-based; conditions: 0.3, 0.5 or 0.7 μM, 14 days, compared to DMSO control (FIG. 1)
Description: For fetal hemoglobin analysis, one million erythroid cells, differentiated for 14 days with or without idoxuridine in the medium, were washed with PBS that included 0.1% BSA, and fixed in 0.05% Glutaraldehyde (Sigma, G5882, St. Louis, Mo.). The fixed cells were washed three times with PBS that included 0.1% BSA, followed by permeabilization in 1% Triton X-100 (Life Technologies, HFH-10, Carlsbad, Calif.), before immunostaining with an antibody directed against HbF (Invitrogen, MHFH04, Carlsbad, Calif.).

[6] = system: human CD34+-differentiated erythroid cells; test: HPLC hemoglobin analysis; format: cell-based; conditions: 0.3 or 0.65 μM, compared to DMSO treated cells (FIG. 2)
Description: (§1) Briefly, for the screen, 5×10^5 CD34^+ cells were expanded for six days in StemSpan SFEM medium (StemCell Technologies Inc., Vancouver, Canada) with SCF, IL-3, TPO and Flt-3 ligand. After expansion, 100,000 cells were distributed to each well (in a 24-well plate) and grown in SFEM medium with 2% P/S, 20 ng/ml SCF, 1 U/ml Epo, 5 ng/ml IL-3, 2 μM dexamethasone, and 1 μM β-estradiol. Individual small molecules were added to each well. Cells were differentiated for another nine days (for RNA analysis) or fourteen days (for hemoglobin analysis). The γ- and β-globin expression in each sample were analyzed by RT-PCR or HPLC.

[7] = system: human CD34+-differentiated erythroid cells; test: Library screen, RT-PCR of γ- and β-globin expression; format: cell-based
Description: as §1

[8] = human CD34+-differentiated erythroid cells

SMILES: O=c1[nH]c(=O)n([C@H]2C[C@H](O)[C@@H](CO)O2)cc1I [Idoxuridine, idoxuridine]
- HbF expression (isoelectric focusing gel) [1]: upregulated
- BCL11A expression (Western blot) [2]: decreases
- KLF1 expression (Western blot) [2]: decreases
- ε-globin gene expression ([3]; Table 1): reactivated
- RNAseq expression, BCL11A ([3]; gene BCL11A, idoxuridine treated cells): 478.2
- Fold change, BCL11A ([3]; gene BCL11A, idoxuridine vs DMSO control): 0.303
- RNAseq expression, HBB ([3]; gene HBB, idoxuridine treated cells): 20938
- Fold change, HBB ([3]; gene HBB, idoxuridine vs DMSO control): 0.2
- RNAseq expression, HBD ([3]; gene HBD, idoxuridine treated cells): 1798
- Fold change, HBD ([3]; gene HBD, idoxuridine vs DMSO control): 0.16
- RNAseq expression, HBE1 ([3]; gene HBE1, idoxuridine treated cells): 17051
- Fold change, HBE1 ([3]; gene HBE1, idoxuridine vs DMSO control): 560
- RNAseq expression, HBG1 ([3]; gene HBG1, idoxuridine treated cells): 18815
- Fold change, HBG1 ([3]; gene HBG1, idoxuridine vs DMSO control): 8.19
- RNAseq expression, HBG2 ([3]; gene HBG2, idoxuridine treated cells): 980
- Fold change, HBG2 ([3]; gene HBG2, idoxuridine vs DMSO control): 6
- RNAseq expression, SOX6 ([3]; gene SOX6, idoxuridine treated cells): 13
- Fold change, SOX6 ([3]; gene SOX6, idoxuridine vs DMSO control): 0.25
- BCL11A mRNA expression [3, 8]: decreased
- KLF1 mRNA expression [3, 8]: decreased
- human γ-globin gene expression [4]: increased
- mouse Ey-2 gene expression [4]: increased
- number of erythroid cells expressing fetal hemoglobin (F cells) [5]: increases
- fetal hemoglobin (HPLC) [6]: significantly increases
- HbF expression in a drug screen [7]: potent inducers
- HbF expression (reverse transcriptase-PCR) [7, 8]: upregulates
- γ-globin expression ([7]; human CD34+-differentiated erythroid cells contacted with idoxuridine): significantly increased

SMILES: O=c1[nH]c(=O)n([C@H]2C[C@H](O)[C@@H](CO)O2)cc1C(F)(F)F [Trifluridine, trifluridine]
- HbF expression in a drug screen [7]: potent inducers
- γ-globin gene expression in the original screen ([7]; original screen): reactivated
